Like-named read-outs stand apart in the source and are kept apart here.
Key:
[1] = Pharmacokinetic analysis in mice; assay type: in vivo, C57BL/6 mice
Source text: The pharmacokinetic properties of SS-1-64 are summarized in the following table along with a comparator RIPK2/NOD inhibitor CSLP37, N-(5-(2-Amino-5-(4-(piperazin-1-yl)phenyl)pyridin-3-yl)-3-fluoro-2-methoxyphenyl)propane-1-sulfonamide (U.S. Pat. No. 11,135,298 to Cuny et al.).

[2] = test system: HEK-Blue cells expressing human NOD2; assay: NOD2 signaling assay #1 (HEK-Blue NFkB-SEAP reporter, L18-MDP stimulated); assay type: cell-based; settings: 1 ng/ml L18-MDP, read-out: IC50 (nM) HEKBlue
Experimental: HEK-Blue cells expressing human NOD2 and NFkB-SAEP reporter (Invivogen) are seeded into 96 well clear plates at 7.5×10^3 cells per well in 100 μL of DMEM media supplemented with 10% FBS and 1% antibiotic-antimycotic mix. Cells are allowed to attach for 48 h in 5% CO2 tissue culture incubator at 37° C. On the morning of the experiment, media in the wells is replaced with 100 μL of HEK-Blue detection media (Invivogen). Cells are treated with the inhibitors, diluted in DMSO (0.5 μL per well) for 15 min in 5% CO2 tissue culture incubator at 37° C. After that, cells are stimulated by the addition of 1 ng/ml L18-MDP (Invivogen). Cells are incubated in 5% CO2 tissue culture incubator at 37° C. for 8 h and absorbance, corresponding to the SEAP in the media, is determined in Wallac3V plate reader (Perkin Elmer). Inhibition, %=(1−((sample signal-unstimulated and DMSO treated cells)/(L18-MDP stimulated and DMSO treated cells−unstimulated and DMSO treated cells)))*100. IC50 values are calculated based on a dose range of inhibitor concentrations using non-linear regression in GraphPad Prism software.

[3] = molecular target: Recombinant RIPK2 protein (Homo sapiens, UniProt O43353); assay: RIPK2 enzyme assay (ADP-Glo); assay type: biochemical; settings: NI: no inhibition observed
Recombinant RIPK2 protein, sequence (O43353 whole entry, species assumed): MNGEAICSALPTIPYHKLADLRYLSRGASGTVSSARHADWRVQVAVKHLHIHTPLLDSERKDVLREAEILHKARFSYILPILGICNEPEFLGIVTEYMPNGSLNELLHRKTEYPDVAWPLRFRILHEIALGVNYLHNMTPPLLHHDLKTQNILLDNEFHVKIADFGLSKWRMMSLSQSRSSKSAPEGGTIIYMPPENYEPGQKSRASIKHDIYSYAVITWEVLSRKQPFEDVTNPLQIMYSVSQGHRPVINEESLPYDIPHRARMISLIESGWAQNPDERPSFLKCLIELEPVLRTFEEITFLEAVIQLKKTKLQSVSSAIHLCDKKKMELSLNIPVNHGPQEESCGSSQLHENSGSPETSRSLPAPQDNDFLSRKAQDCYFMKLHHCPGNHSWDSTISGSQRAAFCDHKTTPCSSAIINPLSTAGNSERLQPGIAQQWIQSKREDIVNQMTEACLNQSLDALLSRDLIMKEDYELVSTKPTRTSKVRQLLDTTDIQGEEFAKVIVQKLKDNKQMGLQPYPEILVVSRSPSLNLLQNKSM
Experimental: Recombinant RIPK2 protein (20 ng per reaction) is diluted in the reaction buffer consisting of 40 mM Tris (pH 7.5); 20 mM MgCl2; 0.1 mg/ml BSA; 50 μM DTT. Diluted protein is added to low volume white 384 well plates (2 μL/well). Inhibitors are diluted in reaction buffer (final 25% DMSO), 1 μL is added to each well and incubated 5 min at room temperature. Reactions are initiated by the addition of 2 μL of 100 μM ATP and 1 mg/ml RS repeat peptide (SignalChem) in the reaction buffer. Plates are sealed with plastic coverslips and incubated at room temperature for 2 h. Reactions are stopped by the addition of 5 μL of ADP-Glo reagent (Promega) and ADP generation reaction is performed for 40 min at room temperature. Luminescence signal is generated by the addition of 10 μL of Kinase detection reagent (Promega) for 30 min at room temperature. Luminescence signals are determined using appropriate luminescence plate-reader (typical integration time 0.3-1 sec). To calculate percent inhibition, average background signal is subtracted from test well and maximal signal wells. Inhibition, %=(1−(test signal/maximal signal))*100. The percent inhibition at a specified concentration is determined or IC50 values are calculated based on a dose range of inhibitor concentrations using non-linear regression in GraphPad Prism software.

[4] = test system: NOD2 cellular signaling in THP1 cells; assay: NOD2 signaling assay #2 (THP1 NFkB-SEAP reporter, L18-MDP stimulated); assay type: cell-based; settings: Homo sapiens, THP-1, 10 ng/ml L18-MDP
Experimental: THP1 cells expressing NFkB-SAEP reporter (Invivogen) are seeded into 96 well clear plates at 5×10^4 cells per well in 100 μL of RPM11640 media supplemented with 10% FBS and 1% antibiotic-antimycotic mix. Cells are treated with the inhibitors, diluted in DMSO ([…] per well) for 15 min in 5% CO2 tissue culture incubator at 37° C. After that, cells are stimulated by the addition of 10 ng/ml L18-MDP (Invivogen). Cells are incubated in 5% CO2 tissue culture incubator at 37° C. for 8 h and absorbance, corresponding to the SEAP in the media, is determined in Wallac3V plate reader (Perkin Elmer). Inhibition, %=(1−((sample signal-unstimulated and DMSO treated cells)/(L18-MDP stimulated and DMSO treated cells−unstimulated and DMSO treated cells)))*100. IC50 values are calculated based on a dose range of inhibitor concentrations using non-linear regression in GraphPad Prism software.

[5] = female, C57BL/6, mouse, in vivo, ip, 10 mg/kg
[6] = single dose 10 mg/kg intraperitoneally, female C57BL/6 mice

Row | SMILES | IC50 [2] | IC50 [3] | IC50 [4] | other results
1 | CCCS(=O)(=O)Nc1cc(-c2cc(-c3ccc(N4CCNCC4)cc3)cnc2N)cc(F)c1OC [CSLP37, N-(5-(2-Amino-5-(4-(piperazin-1-yl)phenyl)pyridin-3-yl)-3-fluoro-2-methoxyphenyl)propane-1-sulfonamide, reference compound] |  |  |  | Cl (clearance) [1, 5]: 59.66 ± 15.09 mL/min/kg; Cmax [1, 5]: 550 ± 200 nM; Tmax [1, 5]: 1.2 ± 0.4472 h; V (volume of distribution) [1, 5]: 24.04 ± 6.15 L/kg; t1/2 (plasma elimination half-life) [1, 5]: 4.66 ± 0.24 h; AUC ([1]; mouse, in vivo, ip, 10 mg/kg): 2920 ng·h/mL
2 | CCCS(=O)(=O)Nc1cc(-c2cc(Br)cnc2N)cc(F)c1OC [SS-1-5, N-(5-(2-amino-5-bromopyridin-3-yl)-3-fluoro-2-methoxyphenyl)propane-1-sulfonamide] | 57 nM |  |  | 
3 | CCCS(=O)(=O)Nc1cc(-c2cc(-c3ccc(N4CCNCC4)cc3)cnc2NC)cc(F)c1OC [SS-1-10, N-(3-fluoro-2-methoxy-5-(2-(methylamino)-5-(4-(piperazin-1-yl)phenyl)pyridin-3-yl)phenyl)propane-1-sulfonamide] | 16 nM |  |  | 
4 | CCCS(=O)(=O)Nc1cc(-c2cc(-c3ccc(C4CCNCC4)cc3)cnc2N)cc(F)c1OC [SS-1-14, N-(5-(2-amino-5-(4-(piperidin-4-yl)phenyl)pyridin-3-yl)-3-fluoro-2-methoxyphenyl)propane-1-sulfonamide] | 0.06 nM | 11 nM |  | 
5 | CCCS(=O)(=O)Nc1cc(-c2cc(-c3ccc(N4CCN(C)CC4)cc3)cnc2N)cc(F)c1OC [SS-1-18, N-(5-(2-amino-5-(4-(4-methylpiperazin-1-yl)phenyl)pyridin-3-yl)-3-fluoro-2-methoxyphenyl)propane-1-sulfonamide] | 0.03 nM | 10 nM |  | 
6 | COc1c(F)cc(-c2cc(-c3ccc(N4CCNCC4)cc3)cnc2N)cc1NS(C)(=O)=O [SS-1-33, N-(5-(2-amino-5-(4-(piperazin-1-yl)phenyl)pyridin-3-yl)-3-fluoro-2-methoxyphenyl)methanesulfonamide] | 0.17 nM | 29 nM |  | 
7 | CCCS(=O)(=O)Nc1cc(-c2cc(-c3ccc(C4CCN(C)CC4)cc3)cnc2N)cc(F)c1OC [SS-1-38, N-(5-(2-amino-5-(4-(1-methylpiperidin-4-yl)phenyl)pyridin-3-yl)-3-fluoro-2-methoxyphenyl)propane-1-sulfonamide] | 0.07 nM | 31 nM |  | 
8 | CCCS(=O)(=O)N(C)c1cc(-c2cc(-c3ccc(N4CCNCC4)cc3)cnc2N)cc(F)c1OC [SS-1-39, N-(5-(2-amino-5-(4-(piperazin-1-yl)phenyl)pyridin-3-yl)-3-fluoro-2-methoxyphenyl)-N-methylpropane-1-sulfonamide] | 1.2 nM | 137 nM |  | 
9 | COc1c(F)cc(-c2cc(-c3ccc(C4CCN(C)CC4)cc3)cnc2N)cc1NS(C)(=O)=O [SS-1-43, N-(5-(2-amino-5-(4-(1-methylpiperidin-4-yl)phenyl)pyridin-3-yl)-3-fluoro-2-methoxyphenyl)methanesulfonamide] |  |  | 0.1 nM | 
10 | COc1c(F)cc(-c2cc(-c3ccc(C4CCN(C)CC4)cc3)cnc2N)cc1N(C)S(C)(=O)=O [SS-1-50, N-(5-(2-amino-5-(4-(1-methylpiperidin-4-yl)phenyl)pyridin-3-yl)-3-fluoro-2-methoxyphenyl)-N-methylmethanesulfonamide] |  |  | 1.2 nM | 
11 | COc1cc(-c2cc(-c3ccc(C4CCN(C)CC4)cc3)cnc2N)cc(NS(C)(=O)=O)c1OC [SS-1-64, N-(5-(2-amino-5-(4-(1-methylpiperidin-4-yl)phenyl)pyridin-3-yl)-2,3-dimethoxyphenyl)methanesulfonamide] |  |  | 0.014 nM | Cmax ([1]; mouse, in vivo, ip, single dose 10 mg/kg intraperitoneally, 6% Captisol in water, female C57BL/6 mice, read-out: maximum plasma concentration (Cmax)): 1630 ± 1200 nM; Tmax ([1]; mouse, in vivo, ip, single dose 10 mg/kg intraperitoneally, female C57BL/6 mice, read-out: Tmax): 1 h; half-life ([1]; mouse, in vivo, ip, single dose 10 mg/kg intraperitoneally, female C57BL/6 mice, read-out: t1/2 (plasma elimination half-life) (converted)): 7.88 ± 0.28 h; Cl (clearance) [1, 6]: 53.56 ± 5.68 mL/min/kg; V (volume of distribution) [1, 6]: 36.45 ± 2.61 L/kg; Tmax ([1]; single dose 10 mg/kg intraperitoneally, female C57BL/6 mice, plasma): 1 ± 0 h
12 | CCCS(=O)(=O)Nc1cc(-c2cc(C#CCN3CCN(C)CC3)cnc2N)cc(F)c1OC [SS-1-66, N-(5-(2-amino-5-(3-(4-methylpiperazin-1-yl)prop-1-yn-1-yl)pyridin-3-yl)-3-fluoro-2-methoxyphenyl)propane-1-sulfonamide] |  |  | 20 nM | 
13 | COc1cc(-c2cc(-c3ccc(C4CCN(C)CC4)cc3)cnc2N)cc(NC(C)=O)c1OC [SS-2-41, N-(5-(2-amino-5-(4-(1-methylpiperidin-4-yl)phenyl)pyridin-3-yl)-2,3-dimethoxyphenyl)acetamide] |  |  | 0.1 nM | 
